According to paper PMC6152127, “Facile Synthesis of Novel Coumarin Derivatives, Antimicrobial Analysis, Enzyme Assay, Docking Study, ADMET Prediction and Toxicity Study” (Molecules : A Journal of Synthetic Chemistry and Natural …, 2017):
≈ marks a conversion by molar mass, not a printed value.

What was measured:
[1] = test system: Aspergillus flavus (NCIM-539); assay: In vitro antifungal activity, MIC, agar method (CLSI); type: cell-based; conditions: NCIM539, average of three readings
Protocol: (§1) The newly synthesized 3-((dicyclohexylamino)(substituted phenyl/heteryl)methyl)-4-hydroxy-2H-chromen-2-one derivatives 4a–o were screened for their in vitro antifungal activity against different yeast and filamentous fungal pathogens. […] Dimethyl sulfoxide (DMSO) was used as solvent control.
(§2) All the synthesized compounds were screened for their in vitro antifungal and antibacterial activity. The antibacterial activity was evaluated against three human pathogenic bacterial strains: Escherichia coli (NCIM-2256), Bacillus subtilis (NCIM-2063) and Staphylococcus aureus (NCIM-2901). The antifungal activity was evaluated against seven human pathogenic fungal strains: Candida albicans (NCIM-3471), Candida glabrata (NCYC-388), Fusarium oxysporum (NCIM-1332), Aspergillus fumigates (NCIM-902), Aspergillus flavus (NCIM-539), Aspergillus niger (NCIM-1196) and Cryptococcus neoformans (NCIM-576), which are often encountered clinically. […] Minimum inhibitory concentration (MIC) values were determined as per CLSI guidelines. Dimethyl sulfoxide (DMSO) was used as solvent control.
(§3) Antifungal activity was determined as per CLSI (formerly, NCCLS) guidelines. […] The medium yeast nitrogen base was dissolved in phosphate buffer pH 7 and it was autoclaved at 110 °C for 10 min. With each set a growth control without the antifungal agent and solvent control DMSO were included. The fungal strains were freshly sub cultured on to Sabouraud dextrose agar (SDA) and incubated at 25 °C for 72 h. The fungal cells were suspended in sterile distilled water and diluted to get 10^5 cells/mL. Ten μL of the standardized suspension was inoculated onto the control plates and the media incorporated with the antifungal agents. The inoculated plates were incubated at 25 °C for 48 h. The readings were taken at the end of 48 h and 72 h. The MIC was the lowest concentration of drug preventing growth of macroscopically visible colonies on drug containing plates when there was visible growth on the drug free control plates.

[2] = test system: Aspergillus fumigates (NCIM-902); assay: as above; type: cell-based; conditions: NCIM902, average of three readings
Protocol: as §1, §2, §3

[3] = test system: Aspergillus niger (NCIM-1196); assay: as above; type: cell-based; conditions: NCIM1196, average of three readings
Protocol: as §1, §2, §3

[4] = test system: Candida albicans (NCIM-3471); assay: as above; type: cell-based; conditions: NCIM3471, average of three readings
Protocol: as §1, §2, §3

[5] = test system: Candida glabrata (NCYC-388); assay: as above; type: cell-based; conditions: Nakaseomyces glabratus; average of three readings
Protocol: as §1, §2, §3

[6] = test system: Cryptococcus neoformans (NCIM-576); assay: as above; type: cell-based; conditions: NCIM576, average of three readings
Protocol: as §1, §2, §3

[7] = test system: Fusarium oxysporum (NCIM-1332); assay: as above; type: cell-based; conditions: NCIM1332, average of three readings
Protocol: as §1, §2, §3

[8] = test system: Bacillus subtilis (NCIM-2063); assay: In vitro antibacterial activity, MIC; type: cell-based; conditions: average of three readings; for MIC: Bacillus subtilis, NCIM2063
Protocol: (§4) The newly synthesized compounds 4a–o were screened for their in vitro antibacterial activity against the three different bacterial strains. Minimum inhibitory concentration (MIC) values for antibacterial activity were determined by standard agar method using Ampicillin as standard drug. Dimethyl sulfoxide (DMSO) was used as solvent control. […] Compound 4e bearing a 2,4-difluoro group on the phenyl ring was 48 µg/mL for E. coli, 50 µg/mL for B. subtilis and 52 µg/mL for S. aureus.
(§5) All the synthesized compounds were screened for their in vitro antifungal and antibacterial activity. The antibacterial activity was evaluated against three human pathogenic bacterial strains: Escherichia coli (NCIM-2256), Bacillus subtilis (NCIM-2063) and Staphylococcus aureus (NCIM-2901). The antifungal activity was evaluated against seven human pathogenic fungal strains: Candida albicans (NCIM-3471), Candida glabrata (NCYC-388), Fusarium oxysporum (NCIM-1332), Aspergillus fumigates (NCIM-902), Aspergillus flavus (NCIM-539), Aspergillus niger (NCIM-1196) and Cryptococcus neoformans (NCIM-576), which are often encountered clinically. Miconazole was used as standard drug. Minimum inhibitory concentration (MIC) values were determined as per CLSI guidelines. Dimethyl sulfoxide (DMSO) was used as solvent control.
(§6) All the synthesized compounds 4a–o were screened for their in vitro antibacterial activity. Minimum inhibitory concentration (MIC) values were determined using method recommended by National Committee for Clinical Laboratory Standards (NCCLS). In vitro antibacterial activities of the synthesized compounds 4a–o were tested in Nutrient Broth (NB) for bacteria by the two fold serial dilution method. Seeded broth (broth containing microbial spores) was prepared in NB from 24 h old bacterial cultures on nutrient agar (Hi-media) at 37± 1 °C. The bacterial suspension was adjusted with sterile saline to a concentration of 1× 10^−4–10^−5 C.F.U. The synthesized compounds and standard drug Ampicillin were prepared by two fold serial dilutions to obtain the required concentrations of 400, 200, 100, 50, 25, 12.5, 6.25 and 3.13 μg/mL. The tubes were incubated in BOD incubators at 37± 1 °C for bacteria. The MICs were recorded by visual observations after 24 h (for bacteria) of incubation.

[9] = test system: Escherichia coli (NCIM-2256); assay: In vitro antibacterial activity, MIC; type: cell-based; conditions: average of three readings; for MIC: Escherichia coli, NCIM2256
Protocol: as §4, §5, §6

[10] = test system: Staphylococcus aureus (NCIM-2901); assay: In vitro antibacterial activity, MIC; type: cell-based; conditions: average of three readings; for MIC: Staphylococcus aureus, NCIM2901
Protocol: as §4, §5, §6

| MIC [1] [µg/mL] | MIC [2] [µg/mL] | MIC [3] [µg/mL] | MIC [4] [µg/mL] | MIC [5] [µg/mL] | MIC [6] [µg/mL] | MIC [7] [µg/mL] | MIC [8] [µg/mL] | MIC [9] [µg/mL] | MIC [10] [µg/mL] | melting point [°C] | MIC Bacillus subtilis [8] [µg/mL] | MIC Escherichia coli [9] [µg/mL] | MIC Staphylococcus aureus [10] [µg/mL] | SMILES |
| --- | --- | --- | --- | --- | --- | --- | --- | --- | --- | --- | --- | --- | --- | --- |
| 25 (≈ 57.8 µM) | 45 (≈ 104 µM) | 22 (≈ 50.9 µM) | 48 (≈ 111 µM) | 46 (≈ 106 µM) | 28 (≈ 64.7 µM) | 40 (≈ 92.5 µM) | 74 (≈ 171 µM) | 68 (≈ 157 µM) | 78 (≈ 180 µM) | 148 to 150 |  |  |  | O=c1oc2ccccc2c(O)c1C(c1ccccn1)N(C1CCCCC1)C1CCCCC1 (stereo not drawn) [Compound 4m, 3-((Dicyclohexylamino)(pyridin-2-yl)methyl)-4-hydroxy-2H-chromen-2-one] |
| 20 (≈ 43.3 µM) | 44 (≈ 95.3 µM) | 22 (≈ 47.7 µM) | 43 (≈ 93.2 µM) | 57 (≈ 123 µM) | 20 (≈ 43.3 µM) | 39 (≈ 84.5 µM) | 58 (≈ 126 µM) | 64 (≈ 139 µM) | 55 (≈ 119 µM) | 133 to 135 |  |  |  | COc1ccc(C(c2c(O)c3ccccc3oc2=O)N(C2CCCCC2)C2CCCCC2)cc1 (stereo not drawn) [Compound 4f, 3-((Dicyclohexylamino)(4-methoxyphenyl)methyl)-4-hydroxy-2H-chromen-2-one] |
| 24 (≈ 48.8 µM) | 52 (≈ 106 µM) | 20 (≈ 40.7 µM) | 50 (≈ 102 µM) | 57 (≈ 116 µM) | 26 (≈ 52.9 µM) | 35 (≈ 71.2 µM) | 60 (≈ 122 µM) | 62 (≈ 126 µM) | 62 (≈ 126 µM) | 138 to 140 |  |  |  | COc1ccc(C(c2c(O)c3ccccc3oc2=O)N(C2CCCCC2)C2CCCCC2)cc1OC (stereo not drawn) [Compound 4g, 3-((Dicyclohexylamino)(3,4-dimethoxyphenyl)methyl)-4-hydroxy-2H-chromen-2-one] |
|  |  |  |  |  |  |  | 50 (≈ 143 µM) | 50 (≈ 143 µM) | 50 (≈ 143 µM) |  |  |  |  | CC1(C)S[C@@H]2[C@H](NC(=O)[C@H](N)c3ccccc3)C(=O)N2[C@H]1C(=O)O [Ampicillin, reference compound] |

Continued, compound first:

| SMILES | MIC [1] [µg/mL] | MIC [2] [µg/mL] | MIC [3] [µg/mL] | MIC [4] [µg/mL] | MIC [5] [µg/mL] | MIC [6] [µg/mL] | MIC [7] [µg/mL] | MIC [8] [µg/mL] | MIC [9] [µg/mL] | MIC [10] [µg/mL] | melting point [°C] | MIC Bacillus subtilis [8] [µg/mL] | MIC Escherichia coli [9] [µg/mL] | MIC Staphylococcus aureus [10] [µg/mL] |
| --- | --- | --- | --- | --- | --- | --- | --- | --- | --- | --- | --- | --- | --- | --- |
| O=c1oc2ccccc2c(O)c1C(c1ccc(F)cc1)N(C1CCCCC1)C1CCCCC1 (stereo not drawn) [Compound 4d, 3-((Dicyclohexylamino)(4-fluorophenyl)methyl)-4-hydroxy-2H-chromen-2-one] | 15 (≈ 33.4 µM) | 28 (≈ 62.3 µM) | 20 (≈ 44.5 µM) | 28 (≈ 62.3 µM) | 30 (≈ 66.7 µM) | 18 (≈ 40 µM) | 30 (≈ 66.7 µM) | 49 (≈ 109 µM) | 50 (≈ 111 µM) | 50 (≈ 111 µM) | 122 to 124 |  |  |  |
| O=c1oc2ccccc2c(O)c1C(c1c(Cl)cccc1Cl)N(C1CCCCC1)C1CCCCC1 (stereo not drawn) [Compound 4c, 3-((2,6-Dichlorophenyl)(dicyclohexylamino)methyl)-4-hydroxy-2H-chromen-2-one] | 15 (≈ 30 µM) | 28 (≈ 55.9 µM) | 18 (≈ 36 µM) | 30 (≈ 59.9 µM) | 28 (≈ 55.9 µM) | 14 (≈ 28 µM) | 35 (≈ 69.9 µM) | 48 (≈ 95.9 µM) | 50 (≈ 99.9 µM) | 50 (≈ 99.9 µM) | 126 to 128 | 48 (≈ 95.9 µM) | 50 (≈ 99.9 µM) | 50 (≈ 99.9 µM) |
| COc1cc(C(c2c(O)c3ccccc3oc2=O)N(C2CCCCC2)C2CCCCC2)cc(OC)c1OC (stereo not drawn) [Compound 4h, 3-((Dicyclohexylamino)(3,4,5-trimethoxyphenyl)methyl)-4-hydroxy-2H-chromen-2-one] | 38 (≈ 72.8 µM) | 50 (≈ 95.8 µM) | 34 (≈ 65.2 µM) | 48 (≈ 92 µM) | 64 (≈ 123 µM) | 34 (≈ 65.2 µM) | 45 (≈ 86.3 µM) | 68 (≈ 130 µM) | 68 (≈ 130 µM) | 66 (≈ 127 µM) | 136 to 138 |  |  |  |
